Data reported in the supplement of paper PMC7017272.
± gives the standard deviation of the averaged measurements.

Tests used:
[1] = test system: UT-SCC-24A; assay: maximal % inhibition of viability relative to DMSO; higher = stronger effect; settings: treatment time: 3 days
Experimental: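 HNSCC cell lines (500 cells/well, 384-well) were cultured on plastic, on top of (2D) or embedded (3D) in Matrigel or human leiomyoma matrix Myogel (500 ug/mL; Myogel 3D mixed with rat collagen I). Cells were treated for 3 days with 5 ten-fold concentrations of each drug, and viability was read by CellTiter-Glo. Viability was normalised to DMSO (0% inhibition) and 100 uM benzethonium chloride (100% inhibition) controls and fitted with the FIMM DSRT pipeline to give IC50 (nM), maximal % inhibition and the drug sensitivity score (DSS). Suffixes _1/_2/_3 on drug names are replicates.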

[2] = test system: UT-SCC-24A; assay: drug sensitivity score (DSS); higher = more sensitive; settings: treatment time: 3 days
Experimental: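 HNSCC cell lines (500 cells/well, 384-well) were cultured on plastic, on top of (2D) or embedded (3D) in Matrigel or human leiomyoma matrix Myogel (500 ug/mL; Myogel 3D mixed with rat collagen I). Cells were treated for 3 days with 5 ten-fold concentrations of each drug, and viability was read by CellTiter-Glo. Suffixes _1/_2/_3 on drug names are replicates.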

[3] = test system: UT-SCC-106A; assay: relative IC50 (midpoint of the fitted curve; maximal inhibition may be below 50%); higher = less potent; settings: treatment time: 3 days
How it was run: (§1)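 HPV-negative HNSCC cell lines were seeded at 500 cells/well in 384-well plates on plastic, on Matrigel- or Myogel-coated wells (500 µg/mL), or embedded in Matrigel or Myogel plus rat collagen I. Compounds were given at five 10-fold concentrations for 3 days, and viability was read by CellTiter-Glo 2.0 luminescence. Signals were normalised to vehicle (0.1% DMSO) and cell-killing control wells. Percent-inhibition dose–response curves were fitted in the FIMM pipeline to derive IC50, maximal inhibition and drug sensitivity score.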

[4] = test system: UT-SCC-8; assay: as above; settings: culture condition: embedded in Myogel + collagen I; treatment time: 3 days
How it was run: as §1

[5] = test system: UT-SCC-28; assay: as above; settings: culture condition: embedded in Myogel + collagen I; treatment time: 3 days
How it was run: as §1

[6] = test system: UT-SCC-24B; assay: as above; settings: culture condition: embedded in Myogel + collagen I; treatment time: 3 days
How it was run: as §1

[7] = test system: UT-SCC-40; assay: as above; settings: treatment time: 3 days
How it was run: as §1

[8] = test system: UT-SCC-106A; assay: maximal % inhibition of viability relative to DMSO; higher = stronger effect; settings: treatment time: 3 days
Experimental: (§2)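 HNSCC cell lines (500 cells/well, 384-well) were cultured on plastic, on top of (2D) or embedded (3D) in Matrigel or human leiomyoma matrix Myogel (500 ug/mL; Myogel 3D mixed with rat collagen I). Cells were treated for 3 days with 5 ten-fold concentrations of each drug, and viability was read by CellTiter-Glo. Viability was normalised to DMSO and benzethonium chloride controls and fitted with the FIMM DSRT pipeline to give IC50 (nM), maximal % inhibition and DSS. Suffixes _1/_2/_3 are replicates. Only inhibition-mode (IC50) fits are kept.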

[9] = test system: UT-SCC-8; assay: as above; settings: treatment time: 3 days
Experimental: as §2

[10] = test system: UT-SCC-42A; assay: as above; settings: treatment time: 3 days
Experimental: as §2

[11] = test system: UT-SCC-14; assay: as above; settings: treatment time: 3 days
Experimental: as §2

[12] = test system: UT-SCC-44; assay: as above; settings: treatment time: 3 days
Experimental: as §2

[13] = test system: UT-SCC-81; assay: as above; settings: treatment time: 3 days
Experimental: as §2

[14] = test system: UT-SCC-28; assay: as above; settings: treatment time: 3 days
Experimental: as §2

[15] = test system: UT-SCC-42B; assay: as above; settings: treatment time: 3 days
Experimental: as §2

[16] = test system: UT-SCC-73; assay: as above; settings: treatment time: 3 days
Experimental: as §2

[17] = test system: UT-SCC-24B; assay: as above; settings: treatment time: 3 days
Experimental: as §2

[18] = test system: UT-SCC-40; assay: as above; settings: treatment time: 3 days
Experimental: as §2

[19] = culture condition: embedded in Matrigel
[20] = culture condition: embedded in Myogel + collagen I
[21] = culture condition: on top of Matrigel
[22] = culture condition: on top of Myogel
[23] = culture condition: plastic 2D (no matrix)

Structure (SMILES): CO[C@H]1C[C@@H]2CC[C@@H](C)[C@@](O)(O2)C(=O)C(=O)N2CCCC[C@H]2C(=O)O[C@H]([C@H](C)C[C@@H]2CC[C@@H](OP(C)(C)=O)[C@H](OC)C2)CC(=O)[C@H](C)/C=C(\C)[C@@H](O)[C@@H](OC)C(=O)[C@H](C)C[C@H](C)/C=C/C=C/C=C/1C [Ridaforolimus]
- maximal % inhibition of viability [1, 19]: 56.1 ± 36%
- maximal % inhibition of viability [1, 20]: 35.7 ± 4%
- maximal % inhibition of viability [1, 21]: 29.4 ± 3.8%
- maximal % inhibition of viability [1, 22]: 32.7 ± 3.6%
- maximal % inhibition of viability [1, 23]: 33 ± 5.9%
- drug sensitivity score [2, 19]: 10.2 ± 10 DSS
- drug sensitivity score [2, 20]: 5.43 ± 0.71 DSS
- drug sensitivity score [2, 21]: 4.57 ± 1.2 DSS
- drug sensitivity score [2, 22]: 5.03 ± 1.4 DSS
- drug sensitivity score [2, 23]: 5.87 ± 0.67 DSS
- relative IC50 [3, 19]: 6.54 nM
- relative IC50 [3, 22]: 8.68 nM
- relative IC50 [4]: 6.75 nM
- relative IC50 [5]: 4.01 nM
- relative IC50 [6]: 1.48 nM
- relative IC50 [7, 19]: 2.37 nM
- relative IC50 [7, 22]: 1.94 nM
- relative IC50 [7, 23]: 1.94 nM
- maximal % inhibition of viability [8, 19]: 35 ± 4.2%
- maximal % inhibition of viability [8, 20]: 27.4 ± 2.9%
- maximal % inhibition of viability [8, 21]: 34.5 ± 4%
- maximal % inhibition of viability [8, 22]: 27.5 ± 2.6%
- maximal % inhibition of viability [8, 23]: 41 ± 1.9%
- maximal % inhibition of viability [9, 19]: 45 ± 7%
- maximal % inhibition of viability [9, 20]: 33.2 ± 7.1%
- maximal % inhibition of viability [9, 21]: 38.4 ± 1.7%
- maximal % inhibition of viability [9, 22]: 49.2 ± 8.1%
- maximal % inhibition of viability [9, 23]: 46.9 ± 5.1%
- maximal % inhibition of viability [10, 19]: 29.5 ± 6.2%
- maximal % inhibition of viability [10, 20]: 42.7 ± 5%
- maximal % inhibition of viability [10, 21]: 33.3 ± 2.6%
- maximal % inhibition of viability [10, 22]: 37.1 ± 6.1%
- maximal % inhibition of viability [10, 23]: 35.8 ± 5%
- maximal % inhibition of viability [11, 19]: 53.4 ± 6.2%
- maximal % inhibition of viability [11, 20]: 57.5 ± 6.6%
- maximal % inhibition of viability [11, 21]: 54.5 ± 9.4%
- maximal % inhibition of viability [11, 22]: 48.6 ± 5.5%
- maximal % inhibition of viability [11, 23]: 50.7 ± 12%
- maximal % inhibition of viability [12, 19]: 32.8 ± 14%
- maximal % inhibition of viability [12, 20]: 44.1 ± 8.6%
- maximal % inhibition of viability [12, 21]: 39.2 ± 2.1%
- maximal % inhibition of viability [12, 22]: 36.9 ± 4.2%
- maximal % inhibition of viability [12, 23]: 33.7 ± 6.2%
- maximal % inhibition of viability [13, 19]: 50 ± 11%
- maximal % inhibition of viability [13, 20]: 64 ± 9.1%
- maximal % inhibition of viability [13, 21]: 43.9 ± 1.1%
- maximal % inhibition of viability [13, 22]: 54.6 ± 4.2%
- maximal % inhibition of viability [13, 23]: 48.4 ± 5.3%
- maximal % inhibition of viability [14, 19]: 30.9 ± 9.3%
- maximal % inhibition of viability [14, 20]: 31.5 ± 18%
- maximal % inhibition of viability [14, 21]: 34.8 ± 4.5%
- maximal % inhibition of viability [14, 23]: 33.4 ± 2.9%
- maximal % inhibition of viability [15, 19]: 16.8 ± 7.8%
- maximal % inhibition of viability [15, 21]: 14.9 ± 2.2%
- maximal % inhibition of viability [15, 22]: 14.2 ± 3.1%
- maximal % inhibition of viability [15, 23]: 14.5 ± 1.9%
- maximal % inhibition of viability [16, 19]: 38.7 ± 16%
- maximal % inhibition of viability [16, 20]: 42.4 ± 11%
- maximal % inhibition of viability [16, 21]: 30.6 ± 3.4%
- maximal % inhibition of viability [16, 22]: 40.2 ± 1.8%
- maximal % inhibition of viability [16, 23]: 31.5 ± 4.3%
- maximal % inhibition of viability [17, 19]: 21.4 ± 6.2%
- maximal % inhibition of viability [17, 20]: 38.1 ± 5.8%
- maximal % inhibition of viability [17, 21]: 26.7 ± 6.1%
- maximal % inhibition of viability [17, 22]: 31.1 ± 7.1%
- maximal % inhibition of viability [17, 23]: 27.4 ± 3.4%
- maximal % inhibition of viability [18, 19]: 29.4 ± 6.9%
- maximal % inhibition of viability [18, 20]: 39 ± 9.4%
- maximal % inhibition of viability [18, 21]: 27 ± 5.7%
- maximal % inhibition of viability [18, 22]: 27.4 ± 1.4%
- maximal % inhibition of viability [18, 23]: 22.4 ± 1.4%
